According to PMC7726444 (Frontiers in Pharmacology, 2020):

What was measured:
[1] = set-up: method as in Wu and Delamere, 1997; conditions: dissociation of the protonated pyridine nitrogen; ref Wu and Delamere, 1997; cited from earlier work
full-length WT TPH1 = molecular target: T1, full-length WT TPH1 (Homo sapiens, UniProt P17752); test: Tryptophan hydroxylase enzymatic activity assay, full-length WT TPH1; assay type: biochemical; conditions: (95% confidence interval)
T1 construct: made in house
T1 sequence (P17752 1-444): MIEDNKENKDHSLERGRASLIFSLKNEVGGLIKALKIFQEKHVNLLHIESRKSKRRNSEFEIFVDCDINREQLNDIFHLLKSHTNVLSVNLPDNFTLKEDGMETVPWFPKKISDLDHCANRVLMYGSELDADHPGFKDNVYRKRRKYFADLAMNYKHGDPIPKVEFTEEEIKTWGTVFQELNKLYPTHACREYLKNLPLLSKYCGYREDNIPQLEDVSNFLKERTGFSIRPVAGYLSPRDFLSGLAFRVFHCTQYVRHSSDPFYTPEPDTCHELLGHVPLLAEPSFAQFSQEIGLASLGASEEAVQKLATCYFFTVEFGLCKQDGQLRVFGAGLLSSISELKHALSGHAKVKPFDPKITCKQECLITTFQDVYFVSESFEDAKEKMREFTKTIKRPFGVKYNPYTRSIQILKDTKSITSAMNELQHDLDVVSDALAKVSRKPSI
From the text: The […] human TPH1 gene was cloned into the pET23a vector (six-His C-terminal fusion; Merck KGaA, Darmstadt, Germany) between the NdeI and XhoI restriction sites, and expressed and purified as described previously ([Wang et al., 2002]; [Betari et al., 2020]). Truncated TPH1 was used since the full-length enzyme tends to aggregate in bacteria and yeast extracts and during purification ([Wang et al., 2002]; [McKinney et al., 2005]), resulting in a much lower protein yield compared to the truncated version. Enzymatic activity of truncated TPH1 is equal to that of the full-length protein ([Betari et al., 2020]). […] Full-length WT TPH1 and TPH2 were expressed as N-terminal six-His-maltose-binding protein fusion proteins in pETM-41 and were cleaved and purified as described previously ([McKinney et al., 2004]; [Winge et al., 2007]). Human WT PAH and TH were expressed and isolated as described previously ([[…] et al., 2012]; [Bezem et al., 2016]). […] Control experiments were performed in the presence of 1% DMSO in the absence of ligand. […] 5-hydroxy tryptophan (5-OH-Trp) was quantified using High Performance Liquid Chromatography (HPLC) essentially as described previously with minor modifications ([McKinney et al., 2004]; [[…] et al., 2020]).

WT full-length TPH2 = molecular target: T2, WT full-length TPH2 (Homo sapiens, UniProt Q8IWU9); test: Tryptophan hydroxylase enzymatic activity assay, WT full-length TPH2; assay type: biochemical; conditions: mean (95% confidence interval), three experiments in duplicate
T2 construct: both the doubly truncated TPH1 protein and WT full-length TPH2 protein; made in house
T2 sequence (Q8IWU9 1-490): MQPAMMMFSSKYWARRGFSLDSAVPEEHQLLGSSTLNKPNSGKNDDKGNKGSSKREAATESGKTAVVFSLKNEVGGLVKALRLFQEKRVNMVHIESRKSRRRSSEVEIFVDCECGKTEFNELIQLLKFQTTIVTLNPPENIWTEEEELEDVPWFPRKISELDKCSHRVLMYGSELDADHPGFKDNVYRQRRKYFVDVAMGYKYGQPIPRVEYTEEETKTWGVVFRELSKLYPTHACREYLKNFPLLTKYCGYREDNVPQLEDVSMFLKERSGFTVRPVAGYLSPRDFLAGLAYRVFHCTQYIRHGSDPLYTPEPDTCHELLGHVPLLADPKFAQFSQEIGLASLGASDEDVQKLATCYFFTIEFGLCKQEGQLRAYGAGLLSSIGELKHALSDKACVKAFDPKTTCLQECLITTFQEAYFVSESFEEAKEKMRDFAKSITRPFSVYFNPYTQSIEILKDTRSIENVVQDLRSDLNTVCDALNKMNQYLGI

WT human TH = molecular target: T3, WT human TH (Homo sapiens, UniProt P07101); test: TH enzymatic activity assay (selectivity); assay type: biochemical; conditions: up to a concentration of 100 µM
T3 construct: made in house
Experimental: Full-length WT TPH1 and TPH2 were expressed as N-terminal six-His-maltose-binding protein fusion proteins in pETM-41 and were cleaved and purified as described previously ([McKinney et al., 2004]; [Winge et al., 2007]). Human WT PAH and TH were expressed and isolated as described previously ([Flydal et al., 2012]; [Bezem et al., 2016]).
Purified WT human TPH2, PAH, and TH were used for this purpose, and the activity assays for each enzyme was performed as described previously ([Haavik and Flatmark, 1980]; [Winge et al., 2007]; [Aubi et al., 2015]; [Bezem et al., 2016]).

T3 sequence (P07101 1-497 isoform P07101-3): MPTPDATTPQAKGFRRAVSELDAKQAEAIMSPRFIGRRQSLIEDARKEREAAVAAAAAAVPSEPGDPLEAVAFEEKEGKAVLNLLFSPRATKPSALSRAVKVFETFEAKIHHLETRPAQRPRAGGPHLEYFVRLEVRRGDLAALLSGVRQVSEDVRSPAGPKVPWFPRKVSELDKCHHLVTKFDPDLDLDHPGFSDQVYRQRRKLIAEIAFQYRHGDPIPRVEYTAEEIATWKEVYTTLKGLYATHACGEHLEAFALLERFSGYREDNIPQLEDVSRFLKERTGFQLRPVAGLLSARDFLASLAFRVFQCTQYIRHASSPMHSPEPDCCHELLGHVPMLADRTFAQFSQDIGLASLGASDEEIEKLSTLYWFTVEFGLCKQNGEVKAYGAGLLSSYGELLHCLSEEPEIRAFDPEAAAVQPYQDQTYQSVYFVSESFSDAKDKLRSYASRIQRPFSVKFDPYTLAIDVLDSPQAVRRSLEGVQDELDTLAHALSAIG

- IC50 (full-length WT TPH1): 3.55 µM
- IC50 (WT full-length TPH2): 4.3 µM
- inhibition of TH (WT human TH): no inhibition
Structure (SMILES): COc1ccc2[nH]c([S+]([O-])Cc3ncc(C)c(OC)c3C)nc2c1 (stereo not shown) [Omeprazole]
- pKa [1]: 7.1
